Assay results: ChEMBL document CHEMBL3390848, “Affinity selection and sequence-activity relationships of HIV-1 membrane fusion inhibitors directed at the drug-resistant variants” (Medchemcomm, 2010)
Residues, ends and D or L forms follow the SMILES beside them.

Tests used:
[1] = test system: Human immunodeficiency virus 1; experiment: Binding affinity to HIV1 His-tagged N-terminal heptad repeat of envelope glycoprotein gp41 assessed as recovery of N36-drug complex at 10 uM after 2 hrs by LC-MS analysis
[2] = test system: Human immunodeficiency virus 1; experiment: Binding affinity to HIV1 His-tagged N-terminal heptad repeat of envelope glycoprotein gp41 assessed as recovery of N36-drug complex at 6 uM after 2 hrs by LC-MS analysis
[3] = test system: Human immunodeficiency virus 1; experiment: Binding affinity to HIV1 His-tagged N-terminal heptad repeat of envelope glycoprotein gp41 assessed as recovery of N36-drug complex at 1 uM after 2 hrs by LC-MS analysis
[4] = test system: Human immunodeficiency virus 1; experiment: Binding affinity to HIV1 His-tagged N-terminal heptad repeat of envelope glycoprotein gp41 assessed as recovery of N36-drug complex at 0.6 uM after 2 hrs by LC-MS analysis
[5] = test system: Human immunodeficiency virus 1; experiment: Antiviral activity against HIV1 NL4-3 harboring gp41 D36G mutant infected in human HeLa cells expressing CD4-LTR-beta-gal assessed as inhibition of viral replication after 48 hrs by MAGI assay; format: functional, organism-based
[6] = test system: Human immunodeficiency virus 1; experiment: Thermal stability of HIV1 envelope glycoprotein gp41 His-tagged N-terminal heptad repeat N36-drug complex assessed as thermal unfolding transition state by measuring molar ellipticity at 4 to 90 degC by circular dichroic spectra analysis

| Structure (SMILES) | Activity [1] [%] | Activity [2] [%] | Activity [3] [%] | Activity [4] [%] | EC50 [5] [nM] | Tm [6] [°C] |
| --- | --- | --- | --- | --- | --- | --- |
| CC[C@H](C)[C@H](NC(=O)[C@H](CC(C)C)NC(=O)[C@H](CCC(=O)O)NC(=O)[C@H](CCC(=O)O)NC(=O)[C@@H](NC(=O)[C@H](CCCCN)NC(=O)[C@H](CCCCN)NC(=O)[C@@H](NC(=O)[C@H](Cc1ccc(O)cc1)NC(=O)[C@H](CCC(=O)O)NC(=O)[C@H](CCC(=O)O)NC(=O)[C@@H](NC(=O)[C@H](CCCCN)NC(=O)[C@H](CCCCN)NC(=O)[C@H](CC(=O)O)NC(=O)[C@H](Cc1c[nH]c2ccccc12)NC(=O)[C@H](CCC(=O)O)NC(=O)[C@H](CCC(=O)O)NC(=O)[C@H](Cc1c[nH]c2ccccc12)NC(C)=O)[C@@H](C)CC)[C@@H](C)O)[C@@H](C)CC)C(=O)N[C@@H](CCCCN)C(=O)N[C@@H](CCCCN)C(=O)N[C@@H](Cc1cnc[nH]1)C(=O)N[C@@H](CCC(=O)O)C(=O)N[C@@H](CCC(=O)O)C(=O)N[C@@H](CCC(N)=O)C(=O)N[C@@H](CCC(N)=O)C(=O)N[C@@H](CCCCN)C(=O)N[C@@H](CCCCN)C(=O)N[C@@H](CC(N)=O)C(=O)N[C@@H](CCC(=O)O)C(=O)N[C@@H](CCC(=O)O)C(=O)N[C@@H](CCC(=O)O)C(=O)N[C@@H](CC(C)C)C(=O)N[C@@H](CCCCN)C(=O)N[C@@H](CCCCN)C(N)=O (Ac-WEEWDKKIEEYTKKIEELIKKHEEQQKKNEEELKK-NH2) | 0.9 | 0.6 | 2.4 | 5.7 | 1.9 | 62.9 |
| CC[C@H](C)[C@H](NC(=O)[C@H](CC(C)C)NC(=O)[C@H](CCC(=O)O)NC(=O)[C@H](CCC(=O)O)NC(=O)[C@@H](NC(=O)[C@H](CCCCN)NC(=O)[C@H](CCCCN)NC(=O)[C@@H](NC(=O)[C@H](Cc1ccc(O)cc1)NC(=O)[C@H](CCC(=O)O)NC(=O)[C@H](CCC(=O)O)NC(=O)[C@@H](NC(=O)[C@H](CCCCN)NC(=O)[C@H](CCCCN)NC(=O)[C@H](CC(=O)O)NC(=O)[C@H](Cc1c[nH]c2ccccc12)NC(=O)[C@H](CCC(=O)O)NC(=O)[C@H](CCC(=O)O)NC(=O)[C@H](Cc1c[nH]c2ccccc12)NC(C)=O)[C@@H](C)CC)[C@@H](C)O)[C@@H](C)CC)C(=O)N[C@@H](CCCCN)C(=O)N[C@@H](CCCCN)C(=O)N[C@@H](CCSC)C(=O)N[C@@H](CCC(=O)O)C(=O)N[C@@H](CCC(=O)O)C(=O)N[C@@H](CCC(N)=O)C(=O)N[C@@H](CCC(N)=O)C(=O)N[C@@H](CCCCN)C(=O)N[C@@H](CCCCN)C(=O)N[C@@H](CC(N)=O)C(=O)N[C@@H](CCC(=O)O)C(=O)N[C@@H](CCC(=O)O)C(=O)N[C@@H](CCC(=O)O)C(=O)N[C@@H](CC(C)C)C(=O)N[C@@H](CCCCN)C(=O)N[C@@H](CCCCN)C(N)=O (Ac-WEEWDKKIEEYTKKIEELIKKMEEQQKKNEEELKK-NH2) | 8.9 | 13.3 | 12.5 | 6.8 | 0.68 | 84.1 |
| CC[C@H](C)[C@H](NC(=O)[C@H](CC(C)C)NC(=O)[C@H](CCC(=O)O)NC(=O)[C@H](CCC(=O)O)NC(=O)[C@@H](NC(=O)[C@H](CCCCN)NC(=O)[C@H](CCCCN)NC(=O)[C@@H](NC(=O)[C@H](Cc1ccc(O)cc1)NC(=O)[C@H](CCC(=O)O)NC(=O)[C@H](CCC(=O)O)NC(=O)[C@@H](NC(=O)[C@H](CCCCN)NC(=O)[C@H](CCCCN)NC(=O)[C@H](CC(=O)O)NC(=O)[C@H](Cc1c[nH]c2ccccc12)NC(=O)[C@H](CCC(=O)O)NC(=O)[C@H](CCC(=O)O)NC(=O)[C@H](Cc1c[nH]c2ccccc12)NC(C)=O)[C@@H](C)CC)[C@@H](C)O)[C@@H](C)CC)C(=O)N[C@@H](CCCCN)C(=O)N[C@@H](CCCCN)C(=O)N[C@@H](CC(N)=O)C(=O)N[C@@H](CCC(=O)O)C(=O)N[C@@H](CCC(=O)O)C(=O)N[C@@H](CCC(N)=O)C(=O)N[C@@H](CCC(N)=O)C(=O)N[C@@H](CCCCN)C(=O)N[C@@H](CCCCN)C(=O)N[C@@H](CC(N)=O)C(=O)N[C@@H](CCC(=O)O)C(=O)N[C@@H](CCC(=O)O)C(=O)N[C@@H](CCC(=O)O)C(=O)N[C@@H](CC(C)C)C(=O)N[C@@H](CCCCN)C(=O)N[C@@H](CCCCN)C(N)=O (Ac-WEEWDKKIEEYTKKIEELIKKNEEQQKKNEEELKK-NH2) | 1.1 | 0.5 | 4.3 | 6.4 | 2.2 | 69 |
| CC[C@H](C)[C@H](NC(=O)[C@H](CC(C)C)NC(=O)[C@H](CCC(=O)O)NC(=O)[C@H](CCC(=O)O)NC(=O)[C@@H](NC(=O)[C@H](CCCCN)NC(=O)[C@H](CCCCN)NC(=O)[C@@H](NC(=O)[C@H](Cc1ccc(O)cc1)NC(=O)[C@H](CCC(=O)O)NC(=O)[C@H](CCC(=O)O)NC(=O)[C@@H](NC(=O)[C@H](CCCCN)NC(=O)[C@H](CCCCN)NC(=O)[C@H](CC(=O)O)NC(=O)[C@H](Cc1c[nH]c2ccccc12)NC(=O)[C@H](CCC(=O)O)NC(=O)[C@H](CCC(=O)O)NC(=O)[C@H](Cc1c[nH]c2ccccc12)NC(C)=O)[C@@H](C)CC)[C@@H](C)O)[C@@H](C)CC)C(=O)N[C@@H](CCCCN)C(=O)N[C@@H](CCCCN)C(=O)N[C@@H](CC(=O)O)C(=O)N[C@@H](CCC(=O)O)C(=O)N[C@@H](CCC(=O)O)C(=O)N[C@@H](CCC(N)=O)C(=O)N[C@@H](CCC(N)=O)C(=O)N[C@@H](CCCCN)C(=O)N[C@@H](CCCCN)C(=O)N[C@@H](CC(N)=O)C(=O)N[C@@H](CCC(=O)O)C(=O)N[C@@H](CCC(=O)O)C(=O)N[C@@H](CCC(=O)O)C(=O)N[C@@H](CC(C)C)C(=O)N[C@@H](CCCCN)C(=O)N[C@@H](CCCCN)C(N)=O (Ac-WEEWDKKIEEYTKKIEELIKKDEEQQKKNEEELKK-NH2) | 0.7 | 0 | 0 | 4.3 | 15 | 59.7 |
| CC[C@H](C)[C@H](NC(=O)[C@H](CC(C)C)NC(=O)[C@H](CCC(=O)O)NC(=O)[C@H](CCC(=O)O)NC(=O)[C@@H](NC(=O)[C@H](CCCCN)NC(=O)[C@H](CCCCN)NC(=O)[C@@H](NC(=O)[C@H](Cc1ccc(O)cc1)NC(=O)[C@H](CCC(=O)O)NC(=O)[C@H](CCC(=O)O)NC(=O)[C@@H](NC(=O)[C@H](CCCCN)NC(=O)[C@H](CCCCN)NC(=O)[C@H](CC(=O)O)NC(=O)[C@H](Cc1c[nH]c2ccccc12)NC(=O)[C@H](CCC(=O)O)NC(=O)[C@H](CCC(=O)O)NC(=O)[C@H](Cc1c[nH]c2ccccc12)NC(C)=O)[C@@H](C)CC)[C@@H](C)O)[C@@H](C)CC)C(=O)N[C@@H](CCCCN)C(=O)N[C@@H](CCCCN)C(=O)N[C@@H](Cc1ccc(O)cc1)C(=O)N[C@@H](CCC(=O)O)C(=O)N[C@@H](CCC(=O)O)C(=O)N[C@@H](CCC(N)=O)C(=O)N[C@@H](CCC(N)=O)C(=O)N[C@@H](CCCCN)C(=O)N[C@@H](CCCCN)C(=O)N[C@@H](CC(N)=O)C(=O)N[C@@H](CCC(=O)O)C(=O)N[C@@H](CCC(=O)O)C(=O)N[C@@H](CCC(=O)O)C(=O)N[C@@H](CC(C)C)C(=O)N[C@@H](CCCCN)C(=O)N[C@@H](CCCCN)C(N)=O (Ac-WEEWDKKIEEYTKKIEELIKKYEEQQKKNEEELKK-NH2) | 0.5 | 0.4 | 2.3 | 5.9 | 1.9 | 68 |
| CC[C@H](C)[C@H](NC(=O)[C@H](CCCCN)NC(=O)[C@H](CCCCN)NC(=O)[C@H](CC(=O)O)NC(=O)[C@H](Cc1c[nH]c2ccccc12)NC(=O)[C@H](CCC(=O)O)NC(=O)[C@H](CCC(=O)O)NC(=O)[C@H](Cc1c[nH]c2ccccc12)NC(C)=O)C(=O)N[C@@H](CCC(=O)O)C(=O)N[C@@H](CCC(=O)O)C(=O)N[C@@H](Cc1ccc(O)cc1)C(=O)N[C@H](C(=O)N[C@@H](CCCCN)C(=O)N[C@@H](CCCCN)C(=O)N[C@H](C(=O)N[C@@H](CCC(=O)O)C(=O)N[C@@H](CCC(=O)O)C(=O)N[C@@H](CC(C)C)C(=O)N[C@H](C(=O)N[C@@H](CCCCN)C(=O)N[C@@H](CCCCN)C(=O)N[C@H](C(=O)N[C@@H](CCC(=O)O)C(=O)N[C@@H](CCC(=O)O)C(=O)N[C@@H](CCC(N)=O)C(=O)N[C@@H](CCC(N)=O)C(=O)N[C@@H](CCCCN)C(=O)N[C@@H](CCCCN)C(=O)N[C@@H](CC(N)=O)C(=O)N[C@@H](CCC(=O)O)C(=O)N[C@@H](CCC(=O)O)C(=O)N[C@@H](CCC(=O)O)C(=O)N[C@@H](CC(C)C)C(=O)N[C@@H](CCCCN)C(=O)N[C@@H](CCCCN)C(N)=O)C(C)C)[C@@H](C)CC)[C@@H](C)CC)[C@@H](C)O (Ac-WEEWDKKIEEYTKKIEELIKKVEEQQKKNEEELKK-NH2) | 2.8 | 6 | 12.1 | 7 | 1.9 | 79.9 |
| CC[C@H](C)[C@H](NC(=O)[C@H](CC(C)C)NC(=O)[C@H](CCC(=O)O)NC(=O)[C@H](CCC(=O)O)NC(=O)[C@@H](NC(=O)[C@H](CCCCN)NC(=O)[C@H](CCCCN)NC(=O)[C@@H](NC(=O)[C@H](Cc1ccc(O)cc1)NC(=O)[C@H](CCC(=O)O)NC(=O)[C@H](CCC(=O)O)NC(=O)[C@@H](NC(=O)[C@H](CCCCN)NC(=O)[C@H](CCCCN)NC(=O)[C@H](CC(=O)O)NC(=O)[C@H](Cc1c[nH]c2ccccc12)NC(=O)[C@H](CCC(=O)O)NC(=O)[C@H](CCC(=O)O)NC(=O)[C@H](Cc1c[nH]c2ccccc12)NC(C)=O)[C@@H](C)CC)[C@@H](C)O)[C@@H](C)CC)C(=O)N[C@@H](CCCCN)C(=O)N[C@@H](CCCCN)C(=O)N[C@@H](Cc1ccccc1)C(=O)N[C@@H](CCC(=O)O)C(=O)N[C@@H](CCC(=O)O)C(=O)N[C@@H](CCC(N)=O)C(=O)N[C@@H](CCC(N)=O)C(=O)N[C@@H](CCCCN)C(=O)N[C@@H](CCCCN)C(=O)N[C@@H](CC(N)=O)C(=O)N[C@@H](CCC(=O)O)C(=O)N[C@@H](CCC(=O)O)C(=O)N[C@@H](CCC(=O)O)C(=O)N[C@@H](CC(C)C)C(=O)N[C@@H](CCCCN)C(=O)N[C@@H](CCCCN)C(N)=O (Ac-WEEWDKKIEEYTKKIEELIKKFEEQQKKNEEELKK-NH2) | 0.7 | 0.6 | 4 | 6.3 | 1.5 | 72.9 |
